Consider 7 compounds from ChEMBL document CHEMBL1201862, “PubChem BioAssay data set” (2004).

Calls of active or inactive are those of the source. Where only a bound is given, the exact number is not on record here.

Test [1] deals with Lytic switch protein BZLF1 (Epstein-Barr virus (strain B95-8) (HHV-4) (Human herpesvirus 4), UniProt P03206). Put plainly: inhibition of BZLF1 ZTA DNA binding – biochemical, fluorescence polarization, Epstein-Barr virus, 1536-well, counter-screen for EBNA-1 inhibitor project, dose response (AID 2377).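 Note: fluorescence polarization of Cy5-labelled ZRE DNA probe bound by purified Zta.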 Also noted: species or system human gammaherpesvirus 4. A general note: Polarisation of emitted light reports the rotation of a fluorescent probe.
Sequence of Lytic switch protein BZLF1 (P03206 whole entry): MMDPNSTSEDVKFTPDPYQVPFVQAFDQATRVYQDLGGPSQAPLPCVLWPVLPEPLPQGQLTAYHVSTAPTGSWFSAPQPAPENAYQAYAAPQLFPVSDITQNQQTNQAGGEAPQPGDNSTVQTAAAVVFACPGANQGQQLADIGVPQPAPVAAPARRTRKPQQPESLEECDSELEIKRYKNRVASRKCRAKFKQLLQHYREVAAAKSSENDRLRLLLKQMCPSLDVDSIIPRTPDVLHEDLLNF

In test [2] the target is Epstein-Barr nuclear antigen 1 (Epstein-Barr virus (strain B95-8) (HHV-4) (Human herpesvirus 4), UniProt P03211). Put plainly: inhibition of EBV nuclear antigen 1 DNA binding – biochemical, fluorescence polarization, 1536-well, dose response (AID 2381).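 Note: fluorescence polarization of a Cy5 DNA probe bound by EBNA-1 protein.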 More on the design: species or system human gammaherpesvirus 4.
Sequence of Epstein-Barr nuclear antigen 1 (P03211 whole entry): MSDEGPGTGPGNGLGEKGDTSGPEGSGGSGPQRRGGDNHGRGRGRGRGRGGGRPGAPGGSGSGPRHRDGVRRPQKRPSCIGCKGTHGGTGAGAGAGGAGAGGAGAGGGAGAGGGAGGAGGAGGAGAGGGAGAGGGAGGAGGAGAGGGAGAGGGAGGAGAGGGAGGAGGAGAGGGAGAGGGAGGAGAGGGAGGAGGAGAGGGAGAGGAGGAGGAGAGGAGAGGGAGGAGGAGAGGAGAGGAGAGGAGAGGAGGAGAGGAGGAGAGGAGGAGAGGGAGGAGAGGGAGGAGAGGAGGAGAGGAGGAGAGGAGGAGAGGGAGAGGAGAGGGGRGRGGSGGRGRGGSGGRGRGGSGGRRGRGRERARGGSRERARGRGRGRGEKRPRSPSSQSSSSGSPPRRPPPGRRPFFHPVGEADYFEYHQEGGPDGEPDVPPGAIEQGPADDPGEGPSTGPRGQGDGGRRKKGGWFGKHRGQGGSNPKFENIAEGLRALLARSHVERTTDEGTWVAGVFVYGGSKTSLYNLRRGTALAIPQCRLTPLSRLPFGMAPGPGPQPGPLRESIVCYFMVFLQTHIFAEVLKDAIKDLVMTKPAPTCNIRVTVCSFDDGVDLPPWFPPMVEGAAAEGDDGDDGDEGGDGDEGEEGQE
Test [3] concerns the target Sphingosine 1-phosphate receptor 3 (Homo sapiens, UniProt Q99500). Put plainly: Dose response cell-based high throughput screening assay for antagonists of the Sphingosine 1-Phosphate Receptor 3 (S1P3). [Related pubchem assays: 1429, 485 ]. Type of test: functional.
Test [4] concerns the target 5-hydroxytryptamine receptor 1E (Homo sapiens, UniProt P28566). Kind of test: Counterscreen assay for S1P3 antagonists: Dose response cell-based high throughput screening assay to identify antagonists of the 5-Hydroxytryptamine Receptor Subtype 1E (5HT1E). [Related pubchem assays: 1429, 485 ]. Format: functional. (The purpose of a counterscreen is to sort out artefacts and off-target activity.)

Test [5] is described as follows: mitochondrial function rescue without frataxin homolog – Friedreich's ataxia, plus single-dose screen, dose response (AID 1465).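 Note: yeast depleted of Yfh1p frataxin homolog grown on glycerol needing respiration; WST-1 tetrazolium dye reduction as measure of cellular dehydrogenase metabolic activity.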 Format: functional.
The target in a further test is NS3 (Hepatitis C virus, UniProt A3EZJ3). Kind of test: PubChem AID 2173. More on the design: species or system Hepacivirus hominis.
Sequence of NS3 (A3EZJ3 whole entry): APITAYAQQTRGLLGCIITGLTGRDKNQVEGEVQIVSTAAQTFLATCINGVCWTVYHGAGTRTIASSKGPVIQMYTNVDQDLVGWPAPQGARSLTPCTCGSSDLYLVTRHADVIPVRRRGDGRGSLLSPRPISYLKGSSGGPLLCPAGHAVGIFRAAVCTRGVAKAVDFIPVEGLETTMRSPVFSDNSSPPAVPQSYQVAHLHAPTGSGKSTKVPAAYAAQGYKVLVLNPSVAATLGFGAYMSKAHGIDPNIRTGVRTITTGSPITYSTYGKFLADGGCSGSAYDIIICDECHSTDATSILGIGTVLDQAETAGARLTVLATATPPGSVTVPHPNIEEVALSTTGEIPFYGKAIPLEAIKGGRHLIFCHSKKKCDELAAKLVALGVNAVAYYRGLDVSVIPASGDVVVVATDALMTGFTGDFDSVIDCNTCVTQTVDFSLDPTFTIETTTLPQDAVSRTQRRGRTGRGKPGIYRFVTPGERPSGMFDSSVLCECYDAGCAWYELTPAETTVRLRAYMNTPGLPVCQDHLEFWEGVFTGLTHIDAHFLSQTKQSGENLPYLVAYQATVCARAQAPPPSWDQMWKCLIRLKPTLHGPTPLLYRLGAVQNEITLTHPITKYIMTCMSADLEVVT
In test [6] the target is G2/mitotic-specific cyclin-B1 (Homo sapiens, UniProt P14635). Kind of test: Counterscreen assay for inhibitors of Wee1 degradation: dose response cell-based assay to identify inhibitors of cyclin B degradation. [Related pubchem assays: 1410, 1321 ]. Format: functional.
Sequence of G2/mitotic-specific cyclin-B1 (P14635 whole entry): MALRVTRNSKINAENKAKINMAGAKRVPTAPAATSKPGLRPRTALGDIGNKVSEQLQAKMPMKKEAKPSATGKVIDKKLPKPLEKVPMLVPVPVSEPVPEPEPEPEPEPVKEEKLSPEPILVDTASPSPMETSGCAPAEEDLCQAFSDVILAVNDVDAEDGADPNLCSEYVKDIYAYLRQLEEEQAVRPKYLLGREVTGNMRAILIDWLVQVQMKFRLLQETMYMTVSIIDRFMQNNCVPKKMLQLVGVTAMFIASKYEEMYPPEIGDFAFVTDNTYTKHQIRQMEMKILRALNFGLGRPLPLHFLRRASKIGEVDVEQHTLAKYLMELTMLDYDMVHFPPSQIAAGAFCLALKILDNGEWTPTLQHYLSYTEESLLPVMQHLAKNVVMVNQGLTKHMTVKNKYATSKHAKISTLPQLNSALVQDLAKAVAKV
In the next test the target is Wee1-like protein kinase (Homo sapiens, UniProt P30291). Put plainly: Dose Response Cell-based Assay for Inhibitors of Wee1 Degradation. [Related pubchem assays: 1410, 1321 ]. Type of test: functional.
Sequence of Wee1-like protein kinase (P30291 whole entry): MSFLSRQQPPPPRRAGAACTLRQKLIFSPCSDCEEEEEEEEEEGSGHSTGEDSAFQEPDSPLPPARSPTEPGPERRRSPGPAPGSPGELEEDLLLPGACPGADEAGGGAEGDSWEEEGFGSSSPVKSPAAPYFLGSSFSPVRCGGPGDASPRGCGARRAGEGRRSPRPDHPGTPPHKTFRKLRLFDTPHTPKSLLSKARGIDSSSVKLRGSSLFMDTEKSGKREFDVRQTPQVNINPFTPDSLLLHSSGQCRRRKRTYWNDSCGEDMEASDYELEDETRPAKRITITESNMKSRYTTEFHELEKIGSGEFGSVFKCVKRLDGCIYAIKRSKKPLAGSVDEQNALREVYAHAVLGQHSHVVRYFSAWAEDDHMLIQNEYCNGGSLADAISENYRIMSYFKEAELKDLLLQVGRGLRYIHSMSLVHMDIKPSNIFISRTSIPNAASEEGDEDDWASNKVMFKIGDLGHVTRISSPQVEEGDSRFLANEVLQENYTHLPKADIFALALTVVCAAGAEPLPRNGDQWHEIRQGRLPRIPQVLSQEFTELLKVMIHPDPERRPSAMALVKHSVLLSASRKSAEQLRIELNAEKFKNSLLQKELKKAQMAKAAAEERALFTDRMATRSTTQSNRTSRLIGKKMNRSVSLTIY
Test [7] can be described thus: Luminescence-based counterscreen assay for KLF5 inhibitors: dose response cell-based high throughput screening assay to identify cytotoxic compounds using the IEC-6 intestinal epithelial cell line. [Related pubchem assays: 1700 (Primary screen.), 1834 (Confirmation screen.), 1858 (Summary AID.), 1905 (Counterscreen.)]. Format: functional.
The target in test [8] is Sphingosine 1-phosphate receptor 2 (Homo sapiens, UniProt O95136). Put plainly: Dose Response Cell Based Assay for Agonists of the S1P2 Receptor of Purchased Analogues. [Related pubchem assays: 729, 843, 854, 736 ]. Format: functional.
Sequence of Sphingosine 1-phosphate receptor 2 (O95136 whole entry): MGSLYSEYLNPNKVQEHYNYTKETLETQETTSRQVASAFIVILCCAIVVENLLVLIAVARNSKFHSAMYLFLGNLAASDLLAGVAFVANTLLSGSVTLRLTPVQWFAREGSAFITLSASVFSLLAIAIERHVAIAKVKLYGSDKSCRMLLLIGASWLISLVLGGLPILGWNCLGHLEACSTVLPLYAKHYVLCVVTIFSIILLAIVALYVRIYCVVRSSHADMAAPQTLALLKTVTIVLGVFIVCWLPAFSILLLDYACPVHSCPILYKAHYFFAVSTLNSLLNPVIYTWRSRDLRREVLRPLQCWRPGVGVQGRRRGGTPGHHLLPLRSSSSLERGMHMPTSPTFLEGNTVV

Sequence of Sphingosine 1-phosphate receptor 3 (Q99500 whole entry): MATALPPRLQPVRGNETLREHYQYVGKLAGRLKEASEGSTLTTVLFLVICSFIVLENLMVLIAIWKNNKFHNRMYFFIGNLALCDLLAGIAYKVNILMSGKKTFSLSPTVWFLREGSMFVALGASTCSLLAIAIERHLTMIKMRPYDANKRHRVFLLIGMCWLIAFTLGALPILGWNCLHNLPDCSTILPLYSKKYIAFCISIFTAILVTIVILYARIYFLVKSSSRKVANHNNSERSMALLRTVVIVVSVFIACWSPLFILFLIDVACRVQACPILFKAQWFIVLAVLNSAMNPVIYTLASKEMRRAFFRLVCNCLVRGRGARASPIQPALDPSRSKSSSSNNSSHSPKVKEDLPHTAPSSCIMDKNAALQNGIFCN
Sequence of 5-hydroxytryptamine receptor 1E (P28566 whole entry): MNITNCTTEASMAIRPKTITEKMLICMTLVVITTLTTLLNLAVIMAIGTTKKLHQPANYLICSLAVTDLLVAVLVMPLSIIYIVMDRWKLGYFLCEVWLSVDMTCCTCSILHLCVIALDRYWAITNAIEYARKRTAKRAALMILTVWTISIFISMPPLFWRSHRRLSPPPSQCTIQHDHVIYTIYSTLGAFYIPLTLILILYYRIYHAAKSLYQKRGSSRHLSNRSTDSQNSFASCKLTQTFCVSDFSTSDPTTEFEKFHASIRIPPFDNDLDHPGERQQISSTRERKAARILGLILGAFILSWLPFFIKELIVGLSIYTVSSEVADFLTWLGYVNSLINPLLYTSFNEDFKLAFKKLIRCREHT

Regarding `COc1cc(NC(=O)c2ccc(Br)cc2)c(OC)cc1NC(=O)c1ccccc1`, the IC50 in test [1] is given as > 111 µM (not active); in test [2] it was 15.4 µM (not active).

Take `O=C(CSc1nnc(-c2cccnc2)n1Cc1ccco1)N1c2ccccc2Sc2ccccc21`: the IC50 in [3] and in test [4] was > 50 µM (not active) in each case.

Turning to `Cn1cccc1/C=C1/SC(=S)N(CC(=O)O)C1=O`, in test [5], the 50% effective concentration (EC50) is > 100 µM (active).

With `Cc1cc(O)c(C(=O)/C=C/c2c(F)c(F)c(F)c(F)c2F)c(=O)o1`, on NS3, the 50% inhibitory concentration (IC50) is 8.85 µM (active).

Regarding `CCN(CC)c1ccc(/C=N/NC(=O)c2ccco2)cc1`, the half-maximal effective concentration (EC50) (in [6]; at Wee1-like protein kinase) was > 49.7 µM (not active) throughout.

Turning to `CCOC(=O)c1sc(NC(=O)c2sc(C)nc2C)nc1C`, the IC50 in test [7] is listed as > 39.8 µM (not active).

Consider `Cc1cc(C(=O)CSc2nnnn2C2CC2)c(C)n1Cc1ccccc1`, for which the EC50 in test [8] is given as > 30 µM (not active).

For orientation: IC50 means the point on the concentration scale where inhibition reaches its midpoint. Broadly, the EC50 is the concentration needed to bring the measured effect to its halfway point.
